Source: patent US12208091B2, “Compounds for treatment of eye diseases associated with excessive vascularisation” (Active Biotech AB, priority 2019, dated 2025)

How the values were obtained:
[1] = system: Human retinal microvascular endothelial cells (HRMECs); test: Tube formation assay, combination with aflibercept (contemplated); assay type: cell-based; details: 0.01 and 0.1 μM combined with Aflibercept (30 nM)
From the text: Microglia, especially activated microglia play important roles in angiogenesis and maintenance of vascular function haemostasis in the retinal microvasculature (Ding et al 2018). It is contemplated that a co-culture of human retinal microvasculature endothelial cells (HRMEC's) and human microglia from brain can be used to assess the effects of a compound of the disclosure, such as laquinimod, tasquinimod, ABR-215174 or ABR-215691, on neovascularization. A method such as the one outlined below may be used.
This study may be carried out substantially as outlined in Example 3.
Tube formation assay is performed using 24-well plate wells coated with Matrigel or in 96-wells as described Ding et al. 2018 (Ding et al. BMC Ophthalmology (2018) 18:249): A 96-well plate is coated with 50 μL/well Matrigel at 37° C. for 30 min. After co-culturing with microglia for 24 h, HRMECs are seeded on the Matrigel at 1.5×10^4 cells/well in 100 μL medium. After a period of time, for example 4 h, tube formation is observed and photographed with a microscope (Leica Microsystems). Images are analysed using the Angiotool plugin (Zudaire et al., 2011, PLoS one, 6, 11, e27385) for ImageJ (NIH public domain). Total tube area, tube length, density, lacunarity, and branching index (number of junctions and endpoints) are quantified.

[2] = system: Human retinal microvascular endothelial cells (HRMECs); test: LPS-activated microglia-induced HRMEC tube formation (co-culture); assay type: cell-based
Experimental: The following experimental groups were included in the study: • Group 1: […] Sulforaphane (10 μM, positive control, anti-angiogenic effects) • Group 3: Aflibercept (“Eylea” 40 μg/ml, positive control, partial anti-angiogenic effects) • Group 4: […] Human retinal microvascular endothelial cells (HRMECs) were purchased from Neuromics (Cat #HEC09, Lot #2872) and cultured according to manufacturer's instructions in Endo-Growth media (Cat #EKG001, Lot #EKG0011902269) supplemented with Endothelial Growth Factor (Cat #EKG001, Lot #EGK00125) on AlphaBiocoat coated T25 flasks at 37° C. 5% CO2. […] Human microglia were seeded onto PLL coated cell culture inserts (Sarstedt, Cat #83.3932.040) at 103 000 cells/cm^2. […] The method for co-cultures of microglia and HRMECs was modified from protocol described by Ding et al. 2018 (Ding X, Gu R, Zhang M, Ren H, Shu Q, Xu G, Wu H. Microglia enhanced the angiogenesis, migration and proliferation of co-cultured RMECs. […] PMID: 30223824; PMCID: PMC6142340) and Ji Cho et al. 2019 (Ji Cho M, Yoon […], Park J, Lee J, Park J G, Cho Y L, Hun Kim J, Jang H, Park Y J, Lee S H, Min J K. Oxidative stress-mediated TXNIP loss causes RPE dysfunction. […] PMID: 31615975; PMCID: PMC6802648). Microglia was activated with LPS (100 ng/ml) in microglia complete growth media without FBS with simultaneous treatment of freshly prepared study compounds, Eylea and vehicle for 24 hours. HRMECs were incubated in basal Endo-Growth media for 24 hours before co-culturing. […] Media in microglia inserts containing LPS was replaced to corresponding freshly prepared study compounds, aflibercept and sulforaphane in basal Endo-Growth media. […] 5% CO2, stained with calcein-AM (5 μM) for 30 min and imaged using a fluorescence microscope (Leica Thunder 3D Tissue Imager, Leica Microsystems). Images were analyzed using the AngioTool software (Zudaire E, Gambardella L, Kurcz […] Computational Tool for Quantitative Analysis of Vascular Networks. PLOS ONE 6(11): e27385. https://doi.org/10.1371/journal.pone.0027385) for ImageJ (NIH public domain). Total tube area, tube length, density, lacunarity, and branching index (number of junctions and endpoints) were quantified. Images were analyzed using AngioTool software (NIH, Bethesda, MD; available in the public domain) for the following readouts: average vessels length, total vessels length, vessel area, vessels percentage area, total number of junctions, density of junctions, total number of endpoints, and mean lacunarity. […] Raw data for each of the readouts was plotted and analyzed by ordinary one-way ANOVA with Dunnett's multiple comparisons post-hoc test. […] Effect size data were analyzed by non-parametric Kruskal-Wallis test, with Dunn's multiple comparisons post-hoc test.

[3] = system: choroidal neovascularisation; test: Laser-induced choroidal neovascularisation rat model, fluorescein angiography leakage score; assay type: in vivo, Brown Norway pigmented rats; design: key to Mean score of fluorescein leakage: 0 = no leakage, 1 = slight, 2 = moderate, 3 = strongly stained; details: Per os 0.5 mg/kg 1×/day
Experimental: Forty-eight (48) Brown Norway pigmented rats were divided into six (6) groups of eight (8) animals. Choroidal neovascularization was induced using a 532 nm argon laser photocoagulator (six (6) 75 μm-sized spots at 150 mW for 0.1 sec duration) in the right eyes on Day 0. The test item was administered three times a day by instillation or twice a day by oral administration from Day 0 (DO) just after ChNV induction to Day 21 (last day of the study). Control item (vehicle) was instilled three times a day and the reference item (Dexamethasone in olive oil) was administered by daily oral administration from the Day 0 just after induction of neovascularization to Day 21. Fundus neovessels were evaluated in the right eyes on Days 14 and 21 using Heidelberg's Retinal Angiograph (HRA). Lesion size was determined on choroid flatmounts labelled with Isolectin-B4 at the end of the in vivo period.
On Day 0, animals were anesthetized by an intramuscular injection of a mix of xylazine (5 mg/kg) and ketamine (25 mg/kg). Pupils from the right eyes were dilated by instillation of one drop of 0.5% tropicamide. Then, six (6) choroidal burns (75 μm spot size) were done through a slit-lamp, with a contact lens, around the optic disc, between the main vessel branches using an argon laser photocoagulator (532 nm; 150 mW; 0.1 sec duration). Production of a bubble at the time of laser treatment confirmed the rupture of Bruch's membrane.
Test, control, or reference items were administered topically by instillation (10 μL each) or by oral route (1 mL/kg) from Day 0 (just after the induction) to Day 21 (end of the study). Test and control items were administered three times a day (for instillation) and two times a day (for oral administration). Reference item was administered once a day by oral route.
Fluorescein angiography was performed on Days 14 and 21 using an HRA (Heidelberg's Retinal Angiograph). After anaesthesia (same mix used for ChNV induction) and pupillary dilation, 250 μL/100 g (body weight) of a 10% sodium fluorescein was injected subcutaneously using a 26-G insulin syringe, and fluorescein photos were recorded 10 minutes after dye injection.
The leakage of fluorescein on the angiograms were evaluated by two examiners in a masked fashion and graded as follows: • Score 0, no leakage; • Score 1, slightly stained; • Score 2, moderately stained; • Score 3, strongly stained.
Statistical analysis, using Mann-Whitney U test or appropriate statistical model, were performed on the scoring of lesions visualized by HRA from each animal and on the scoring of the flat mounted preparations.
The grading of fluorescein angiographies (FA) was based on the fluorescence intensity for each lesion. For each treatment group, results were expressed as the group mean score per time-point. Table 1 summarises the evaluation of FA recorded at 10 min on Days 14 and 21 (n=8 animals per group, right eyes). A statistical analysis was performed on the median of the individual intensity scores, using a Kruskall-Wallis test followed by a Mann & Whitney U multiple comparison test, which was used to compare each test, control or reference group.

[4] = Animal body weight in the ChNV rat study; assay type: in vivo, Brown Norway pigmented rats; details: during the study, oral 0.5 mg/kg 1×/day
Experimental: The body weight of all animals was recorded before the start of the study, then once every week.
Animal body weights were recorded before induction and treatment (baseline) and then once a week. Animal body weights were within the normal range at the baseline: 166-202 g (min−max, n=48). On Day 21, no significant difference between test and control items was observed. […] This loss is an expected adverse effect of orally dosed corticosteroid.

[5] = system: bFGF induced corneal vascularisation; test: bFGF induced corneal vascularisation (pellet in corneal pocket), area of neovascularisation; assay type: in vivo, C57BL/6 mice
[6] = system: metastatic chemo naïve prostate cancer (mCRPC); details: randomized placebo controlled Phase 2 and 3 studies; cited from earlier work
[7] = system: VEGF induced corneal vascularisation; test: VEGF induced corneal vascularisation (pellet in corneal pocket), area of neovascularisation; assay type: in vivo, C57BL/6 mice; design: Area of vasc.: unit not given beside the values
Experimental: The area of the neovascularisation can be measured using the formula: Area=0.2·VL·CH·π wherein vessel length (VL) and continuous circumferential zone (in clock hours=CH) are measured as defined in FIG. 1. Treatment with Laquinimod of VEGF Induced Corneal Vascularisation
Hydron pellets for induction of vascularisation were prepared from stimulant (VEGF) and binding agent (sucralfate).
53 CR female C57BL/6 mice aged 6 to 8 weeks were prepared for surgery by anesthetising with 90 mg/kg of pentobarbital, ip. Corneal vascularisation was induced by placement of a pellet in a corneal pocket cut in one eye. Signs for ocular irritation or infection were carefully monitored.
[…] Vascularisation was measured on day 8.

[8] = group 2: 5 mg/kg po qd ×5, measured day 6
[9] = group 2: 5 mg/kg ip qd ×7, measured day 8

## Cn1c(=O)c(C(=O)Nc2ccccc2)c(O)c2c(Cl)cccc21 [ABR-215174, 5-chloro-4-hydroxy-1-methyl-2-oxo-1,2-dihydroquinoline-3-carboxylic acid phenylamide]
[1]
  effect on tube formation of combination compared to each compound used as monotherapy: clear additive effect
[2]; 0.1 μM, normalised to vehicle 0%, sulforaphane 100%
  Normalized effect size on average vessel length: 88.2%

## C[C@@H]1C[C@H]2[C@@H]3CCC4=CC(=O)C=C[C@]4(C)[C@@]3(F)[C@@H](O)C[C@]2(C)[C@@]1(O)C(=O)CO [Dexamethasone, reference compound]
[3]; Day 14
  % of reduction vs respective vehicle: 71%
  Mean score of fluorescein leakage: 0.7
[3]; Day 21
  % of reduction vs respective vehicle: 73%
  Mean score of fluorescein leakage: 0.8
[4]
  body weight loss: 21%

## CCN(CC)CCNC(=O)c1c(C)[nH]c(/C=C2\C(=O)Nc3ccc(F)cc32)c1C [Sutent, reference compound]
[5]; 40 mg/kg
  Inhibition of corneal vascularisation induced by bFGF: 80%
[5]; [8]
  Area of vasc.: 0.72 ± 0.08
  Area percent of positive control: 20%

## COc1cccc2c1c(O)c(C(=O)N(C)c1ccc(C(F)(F)F)cc1)c(=O)n2C [tasquinimod]
[6]
  Disease progression (primary endpoint): significantly delayed

## Avastin: Bevacizumab (Avastin) is an IgG1-based antibody which binds VEGF-A; positive control
[7]; 5 mg/kg (reference)
  Inhibition of corneal vascularisation induced by VEGF: 100%
[7]; [9]
  Area of vasc.: 0.00 ± 0.00
  Area percent of positive control: 0%

## C[S+]([O-])CCCCN=C=S (stereo not shown) [sulforaphane, reference compound]
[2]; 10 μM, positive control, set to 100% by normalisation (vehicle 0%)
  Normalized effect size on average vessel length: 100%

## Eylea: recombinant protein aflibercept (Eylea) with affinity for VEGF-A, VEGF-B, and PGF
[2]; 40 μg/ml, normalised to vehicle 0%, sulforaphane 100%
  Normalized effect size on average vessel length: 18%
